Assays:
Format in all cases: cell-based, human
[1] = test system: Versican gene; experiment: RT-PCR analysis (1) of cell mass, Versican; details: in the presence of BIO, ascribed to relative decrease of hair papilla cells, FIG. 7
Method: (§1) Hair papilla cells were prepared to P3 or more (with P1 indicating one round of subculturing) in the presence or absence of BIO loading, while keratinocytes were prepared up to and including P3.
(§2) Each of the cells was diluted with each medium following trypsin treatment so as to obtain 1×10^5 cells.
(§3) In the case of adding BIO (Calbiochem), the BIO was dissolved to 10 mM with dimethylsulfoxide (DMSO) and added to a concentration of 0.1 to 5 μM.
(§4) 25 to 35 μl of each culture medium was dispensed onto the inside of the upper lid of a square culture dish measuring 10 cm on a side and mixed to prepare dome-shaped droplets of a suitable size.
(§5) Three days later, the medium was replaced with the same medium as that used above.
(§6) After culturing for an additional four days, a portion of the medium was subjected to RT-PCR analysis (1) as described below. All of the remaining media was replaced with medium under conditions of the absence of BIO.
(§7) RNA was extracted from each sample using Trizol (Invitrogen). An equivalent of 200 ng of each RNA was reverse transcribed to cDNA with a reaction system consisting of 50 μl of RevTraACE (Toyobo). 1 μl of the resulting samples was applied to a PCR reaction in a 50 μl system using the primers listed below. […]

[2] = test system: cell masses prepared with hair papilla cells and outer root sheath cells; experiment: Immunohistofluorescent staining of cell mass prepared with hair papilla cells and outer root sheath cells
Method: Each of the cell masses obtained with the hanging drop method were fixed for 5 minutes with 0.1% paraformaldehyde and submitted for staining. In addition, a portion of the cell masses were embedded in OCT solution without fixing and prepared into frozen sections with a cryostat followed by immunohistostaining.
Blocking was carried out for 6 hours with PBS(−) containing 13% bovine serum albumin (BSA).
Each of the primary antibodies indicated in the following table were diluted by 1/200 with the aforementioned PBS(−) containing 13% bovine serum albumin (BSA), added to each sample and allowed to react for 4 hours at 4° C.
The cells were washed three times with PBS(−) containing 0.02% Tween 20.
Fluorescent secondary antibody (see Excel file) diluted by 1/200 with the aforementioned PBS(−) containing 13% bovine serum albumin (BSA) was added to each sample. In addition, the nuclei of the cells were stained blue with DAPI (4′-6-diamidino-2-phenylindole).
Antibody to cytokeratin 14 (K14) expressed in epidermal keratinocytes and outer root sheath cells is used for the purpose of confirming that these cells have not differentiated to hair roots (red). Since AE13 monoclonal antibody, which specifically reacts to hair keratin (Lynch et al., J. Cell Biol., 103, 2593, 1986), recognizes 44K/46K acidic hair keratin dimer, it is used to mark differentiation into hair roots (green). […]

[3] = test system: Wnt10B; experiment: Wnt10B RT-PCR, RT-PCR analysis (3), quantitative PCR of cell mass; details: FIG. 9
Method: Hair papilla cells were prepared to P3 (with P1 indicating one round of subculturing) in the absence of BIO loading, while outer root sheath cells were prepared up to and including P3.
(§8) Each of the cells was diluted with each medium following trypsin treatment so as to obtain 3×10^3 cells.
(§9) BIO (Calbiochem) was dissolved to 10 mM with dimethylsulfoxide (DMSO) and added to a concentration of 0.1 to 5 μM.
as §4
(§10) Three days later, the medium was replaced with the same medium as that used above. […]
RNA was extracted from the samples using Trizol (Invitrogen). […] 4 μl of the resulting samples were applied to a quantitative PCR system (LightCycler System, Roche) in a 20 μl system using the primers listed below. […]
All data was expressed as the relative expressed amount based on the expressed amount after 3 days in the case of not loading the cell mass with BIO. […] Accordingly, in this experimental system, differentiation of follicular epithelial cells (outer root sheath cells), and what is more, autonomous organogenesis were clearly determined to be induced by culturing in the presence of BIO followed by culturing after removing BIO.

[4] = test system: TWIST-1; experiment: RT-PCR analysis (1) of cell mass, TWIST-1; details: in the presence of BIO, ascribed to relative decrease of hair papilla cells, FIG. 7
Method: as §1, §2, §3, §4, §5, §6, §7

[5] = test system: SHH (Sonic Hedge Hog); experiment: RT-PCR analysis (1) of cell mass, SHH; details: in the presence of BIO (same in its absence), FIG. 7
Method: as §1, §2, §3, §4, §5, §6, §7

[6] = test system: Lef-1; experiment: RT-PCR analysis (1) of cell mass, Lef-1; details: in the presence of BIO (also detected in its absence), FIG. 7
Method: as §1, §2, §3, §4, §5, §6, §7

[7] = test system: cell mass of hair papilla cells and epidermal keratinocytes; experiment: Immunohistofluorescent staining of hanging-drop cell mass (hair papilla cells and keratinocytes)
Method: 30% Advanced DMEM (Invitrogen), 2 mM L-glutamine, a mixture of penicillin and streptomycin (Invitrogen, 100-fold dilution) and 3.5 μl/50 ml of β-mercaptoethanol were mixed with Humedia KG-2 (Kurabo) at a ratio of 1:1.
as §3, §1, §2, §4, §10
In the color version of this diagram, green coloring by vimentin antibody and red coloring by CD49f antibody can be distinguished, and each were able to be determined to be hair papilla cells and keratinocytes, respectively. […] After the cell masses formed following the addition of BIO, red-staining keratinocytes were determined to be growing in a regular manner in the form of branches within cell masses cultured in the absence of BIO. […]

[8] = test system: Wnt3A; experiment: Wnt3A RT-PCR, RT-PCR analysis (2) of cell mass; details: FIG. 8
Method: Hair papilla cells were prepared to P3 (with P1 indicating one round of subculturing) in the presence of BIO loading, while keratinocytes were prepared up to and including P3.
as §8, §9, §4
Three days later, the medium was replaced with the same medium as that used above. The samples were collected on the 7th day and submitted for RT-PCR analysis (2) as described below (“0 day” in FIG. 8). The medium used for the same remaining cells was replaced with medium under conditions of the absence of BIO to induce differentiation, after which the samples collected on the 3rd day were submitted for RT-PCR analysis (2) as described below (“3 days” in FIG. 8).
RNA was extracted from the samples using Trizol (Invitrogen). […]
10 μl of the reaction solution was electrophoresed at 100 V in 2% agarose gel (Cosmobio)/TAE buffer. Target bands were detected after visualizing with ethidium bromide.

[9] = test system: STAT-3; experiment: RT-PCR analysis (1) of cell mass, STAT-3; details: presence of BIO compared with absence, FIG. 7
Method: as §1, §2, §3, §4, §5, §6, §7

O=C1Nc2cc(Br)ccc2/C1=C1/Nc2ccccc2/C1=N\O [BIO, (2′Z,3′E)-6-bromoindirubin-3′-oxime] was tested, and the “expression of Versican gene” value [1] was “expression appearing to decrease”, the “immunostaining by Ber-EP4 antibody (hair buds)” value ([2]; hair papilla cells and outer root sheath cells stimulated with BIO, FIG. 6) was “clearly observed” and the “staining by AE13 antibody (hair keratin)” value ([2]; hair papilla cells and outer root sheath cells, BIO stimulation versus absence of BIO, FIG. 5) was “considerably enhanced”. The “expression of Wnt10B, relative expressed amount” value ([3]; after removing BIO (day 10 and day 14)) was “increased over time”, the “expression of Wnt10B, relative expressed amount” value ([3]; cultured in the presence of BIO (day 7), versus control cultured in the absence of BIO) was “about the same level as that of a control” and the “expression of TWIST-1 gene” value [4] was “expression appearing to decrease”. The “expression of SHH gene” value [5] was “not detected”, the “expression of Lef-1 gene” value [6] was “detected” and the “staining for the proliferation marker, K167, in the cell mass” value ([7]; cell mass formed by adding BIO 0.1 to 5 μM, central portion and branch-like end portion, FIG. 3) was “positive”. The “staining by AE13 antibody (hair keratin)” value ([7]; hair papilla cells and epidermal keratinocytes, stimulated with BIO, no staining without BIO, FIG. 5) was “staining is observed in some cell masses”, the “expression of Wnt3A” value ([8]; 3rd day after removal of BIO ("3 days")) was “expression of Wnt3A was observed” and the “expression of Wnt3A” value ([8]; cultured in the presence of BIO, 7th day ("0 day")) was “not being observed at all”. For the same compound, the “expression of STAT-3 gene” value [9] was “detected prominently”.
